Data from ChEMBL document CHEMBL3044763, “Inhibitory Activities of Rhodanine Derivatives on Plant Growth” (Biosci Biotechnol Biochem, 1996).

How the values were obtained:
[1] = Toxicity in Mus musculus ddY (mouse) assessed as mortality at 300 mg/kg, ip after 7 days; format: organism-based; parameters: dose 300 mg/kg, route intraperitoneal; conditions: in vivo
[2] = Toxicity in Mus musculus ddY (mouse) assessed as mortality at 300 mg/kg, ip after 5 days; format: organism-based; parameters: dose 300 mg/kg, route intraperitoneal; conditions: in vivo
[3] = system: Brassica rapa subsp. oleifera; test: Growth inhibition of Brassica rapa subsp. oleifera assessed as chlorophyll a level at 5 x 10^-5 M after 7 days; format: functional; parameters: scale not given: the % may be the effect or the level left
[4] = Toxicity in Mus musculus ddY (mouse) assessed as mortality at 250 mg/kg, ip after 3 days; format: organism-based; parameters: dose 250 mg/kg, route intraperitoneal; conditions: in vivo
[5] = Toxicity in Mus musculus ddY (mouse) assessed as mortality at 300 mg/kg, ip after 3 days; format: organism-based; parameters: dose 300 mg/kg, route intraperitoneal; conditions: in vivo
[6] = system: Brassica rapa subsp. oleifera; test: Growth inhibition of Brassica rapa subsp. oleifera assessed as chlorophyll b level at 3 x 10^-4 M after 7 days; format: functional; parameters: scale not given: the % may be the effect or the level left
[7] = Toxicity in Mus musculus ddY (mouse) assessed as mortality at 300 mg/kg, ip after 2 days; format: organism-based; parameters: dose 300 mg/kg, route intraperitoneal; conditions: in vivo
[8] = Toxicity in Mus musculus ddY (mouse) assessed as mortality at 200 mg/kg, ip after 1 day; format: organism-based; parameters: dose 200 mg/kg, route intraperitoneal; conditions: in vivo
[9] = system: Brassica rapa subsp. oleifera; test: Growth inhibition of Brassica rapa subsp. oleifera assessed as total chlorophyll level at 3 x 10^-5 M after 7 days; format: functional; parameters: scale not given: the % may be the effect or the level left
[10] = system: Brassica rapa subsp. oleifera; test: Growth inhibition of Brassica rapa subsp. oleifera assessed as chlorophyll b level at 1 x 10^-4 M after 7 days; format: functional; parameters: scale not given: the % may be the effect or the level left
[11] = Toxicity in Mus musculus ddY (mouse) assessed as mortality at 250 mg/kg, ip after 7 days; format: organism-based; parameters: dose 250 mg/kg, route intraperitoneal; conditions: in vivo
[12] = Toxicity in Mus musculus ddY (mouse) assessed as mortality at 325 mg/kg, ip after 7 days; format: organism-based; parameters: dose 325 mg/kg, route intraperitoneal; conditions: in vivo
[13] = Toxicity in Mus musculus ddY (mouse) assessed as mortality at 200 mg/kg, ip after 2 days; format: organism-based; parameters: dose 200 mg/kg, route intraperitoneal; conditions: in vivo
[14] = system: Brassica rapa subsp. oleifera; test: Growth inhibition of Brassica rapa subsp. oleifera assessed as total chlorophyll level at 1 x 10^-4 M after 7 days; format: functional; parameters: scale not given: the % may be the effect or the level left
[15] = Toxicity in Mus musculus ddY (mouse) assessed as mortality at 225 mg/kg, ip after 5 days; format: organism-based; parameters: dose 225 mg/kg, route intraperitoneal; conditions: in vivo
[16] = Toxicity in Mus musculus ddY (mouse) assessed as mortality at 275 mg/kg, ip after 2 days; format: organism-based; parameters: dose 275 mg/kg, route intraperitoneal; conditions: in vivo
[17] = Toxicity in Mus musculus ddY (mouse) assessed as mortality at 275 mg/kg, ip after 3 days; format: organism-based; parameters: dose 275 mg/kg, route intraperitoneal; conditions: in vivo
[18] = system: Brassica rapa subsp. oleifera; test: Growth inhibition of Brassica rapa subsp. oleifera assessed as chlorophyll b level at 5 x 10^-5 M after 7 days; format: functional; parameters: scale not given: the % may be the effect or the level left
[19] = Toxicity in Mus musculus ddY (mouse) assessed as mortality at 225 mg/kg, ip after 4 days; format: organism-based; parameters: dose 225 mg/kg, route intraperitoneal; conditions: in vivo
[20] = Toxicity in Mus musculus ddY (mouse) assessed as mortality at 250 mg/kg, ip after 2 days; format: organism-based; parameters: dose 250 mg/kg, route intraperitoneal; conditions: in vivo
[21] = Toxicity in Mus musculus ddY (mouse) assessed as mortality at 300 mg/kg, ip after 4 days; format: organism-based; parameters: dose 300 mg/kg, route intraperitoneal; conditions: in vivo
[22] = Toxicity in Mus musculus ddY (mouse) assessed as mortality at 200 mg/kg, ip after 3 days; format: organism-based; parameters: dose 200 mg/kg, route intraperitoneal; conditions: in vivo
[23] = system: Brassica rapa subsp. oleifera; test: Growth inhibition of Brassica rapa subsp. oleifera assessed as total chlorophyll level at 5 x 10^-5 M after 7 days; format: functional; parameters: scale not given: the % may be the effect or the level left
[24] = Toxicity in Mus musculus ddY (mouse) assessed as mortality at 300 mg/kg, ip after 6 days; format: organism-based; parameters: dose 300 mg/kg, route intraperitoneal; conditions: in vivo
[25] = Toxicity in Mus musculus ddY (mouse) assessed as mortality at 275 mg/kg, ip after 7 days; format: organism-based; parameters: dose 275 mg/kg, route intraperitoneal; conditions: in vivo
[26] = Toxicity in Mus musculus ddY (mouse) assessed as mortality at 325 mg/kg, ip after 3 days; format: organism-based; parameters: dose 325 mg/kg, route intraperitoneal; conditions: in vivo
[27] = system: Brassica rapa subsp. oleifera; test: Growth inhibition of Brassica rapa subsp. oleifera assessed as chlorophyll a level at 3 x 10^-4 M after 7 days; format: functional; parameters: scale not given: the % may be the effect or the level left
[28] = Toxicity in Mus musculus ddY (mouse) assessed as mortality at 200 mg/kg, ip after 6 days; format: organism-based; parameters: dose 200 mg/kg, route intraperitoneal; conditions: in vivo
[29] = Toxicity in Mus musculus ddY (mouse) assessed as mortality at 325 mg/kg, ip after 1 day; format: organism-based; parameters: dose 325 mg/kg, route intraperitoneal; conditions: in vivo
[30] = Toxicity in Mus musculus ddY (mouse) assessed as mortality at 200 mg/kg, ip after 5 days; format: organism-based; parameters: dose 200 mg/kg, route intraperitoneal; conditions: in vivo
[31] = Toxicity in Mus musculus ddY (mouse) assessed as mortality at 250 mg/kg, ip after 6 days; format: organism-based; parameters: dose 250 mg/kg, route intraperitoneal; conditions: in vivo
[32] = Toxicity in Mus musculus ddY (mouse) assessed as mortality at 225 mg/kg, ip after 6 days; format: organism-based; parameters: dose 225 mg/kg, route intraperitoneal; conditions: in vivo
[33] = Toxicity in Mus musculus ddY (mouse) assessed as mortality at 325 mg/kg, ip after 4 days; format: organism-based; parameters: dose 325 mg/kg, route intraperitoneal; conditions: in vivo
[34] = Toxicity in Mus musculus ddY (mouse) assessed as mortality at 300 mg/kg, ip after 1 day; format: organism-based; parameters: dose 300 mg/kg, route intraperitoneal; conditions: in vivo
[35] = Toxicity in Mus musculus ddY (mouse) assessed as mortality at 250 mg/kg, ip after 4 days; format: organism-based; parameters: dose 250 mg/kg, route intraperitoneal; conditions: in vivo
[36] = system: Brassica rapa subsp. oleifera; test: Growth inhibition of Brassica rapa subsp. oleifera assessed as root growth at 5 x 10^-5 M after 7 days; format: functional
[37] = Toxicity in Mus musculus ddY (mouse) assessed as mortality at 275 mg/kg, ip after 5 days; format: organism-based; parameters: dose 275 mg/kg, route intraperitoneal; conditions: in vivo
[38] = Toxicity in Mus musculus ddY (mouse) assessed as mortality at 225 mg/kg, ip after 7 days; format: organism-based; parameters: dose 225 mg/kg, route intraperitoneal; conditions: in vivo
[39] = Toxicity in Mus musculus ddY (mouse) assessed as mortality at 250 mg/kg, ip after 5 days; format: organism-based; parameters: dose 250 mg/kg, route intraperitoneal; conditions: in vivo
[40] = system: Brassica rapa subsp. oleifera; test: Growth inhibition of Brassica rapa subsp. oleifera assessed as root growth at 1 x 10^-4 M after 7 days; format: functional
[41] = system: Brassica rapa subsp. oleifera; test: Growth inhibition of Brassica rapa subsp. oleifera assessed as root growth at 3 x 10^-4 M after 7 days; format: functional
[42] = Toxicity in Mus musculus ddY (mouse) assessed as mortality at 325 mg/kg, ip after 6 days; format: organism-based; parameters: dose 325 mg/kg, route intraperitoneal; conditions: in vivo
[43] = system: Brassica rapa subsp. oleifera; test: Growth inhibition of Brassica rapa subsp. oleifera assessed as chlorophyll b level at 3 x 10^-5 M after 7 days; format: functional; parameters: scale not given: the % may be the effect or the level left
[44] = Toxicity in Mus musculus ddY (mouse) assessed as mortality at 200 mg/kg, ip after 4 days; format: organism-based; parameters: dose 200 mg/kg, route intraperitoneal; conditions: in vivo
[45] = Toxicity in ip dosed Mus musculus ddY (mouse) assessed as mortality after 1 to 7 days; format: organism-based; conditions: in vivo
[46] = Toxicity in Mus musculus ddY (mouse) assessed as mortality at 200 mg/kg, ip after 7 days; format: organism-based; parameters: dose 200 mg/kg, route intraperitoneal; conditions: in vivo
[47] = Toxicity in Mus musculus ddY (mouse) assessed as mortality at 225 mg/kg, ip after 2 days; format: organism-based; parameters: dose 225 mg/kg, route intraperitoneal; conditions: in vivo
[48] = system: Brassica rapa subsp. oleifera; test: Growth inhibition of Brassica rapa subsp. oleifera assessed as chlorophyll a level at 3 x 10^-5 M after 7 days; format: functional; parameters: scale not given: the % may be the effect or the level left
[49] = Toxicity in Mus musculus ddY (mouse) assessed as mortality at 225 mg/kg, ip after 3 days; format: organism-based; parameters: dose 225 mg/kg, route intraperitoneal; conditions: in vivo
[50] = Toxicity in Mus musculus ddY (mouse) assessed as mortality at 325 mg/kg, ip after 2 days; format: organism-based; parameters: dose 325 mg/kg, route intraperitoneal; conditions: in vivo
[51] = Toxicity in Mus musculus ddY (mouse) assessed as mortality at 225 mg/kg, ip after 1 day; format: organism-based; parameters: dose 225 mg/kg, route intraperitoneal; conditions: in vivo
[52] = Toxicity in Mus musculus ddY (mouse) assessed as mortality at 275 mg/kg, ip after 1 day; format: organism-based; parameters: dose 275 mg/kg, route intraperitoneal; conditions: in vivo
[53] = Toxicity in Mus musculus ddY (mouse) assessed as mortality at 275 mg/kg, ip after 6 days; format: organism-based; parameters: dose 275 mg/kg, route intraperitoneal; conditions: in vivo
[54] = system: Brassica rapa subsp. oleifera; test: Growth inhibition of Brassica rapa subsp. oleifera assessed as root growth at 3 x 10^-5 M after 7 days; format: functional
[55] = Toxicity in Mus musculus ddY (mouse) assessed as mortality at 250 mg/kg, ip after 1 day; format: organism-based; parameters: dose 250 mg/kg, route intraperitoneal; conditions: in vivo
[56] = Toxicity in Mus musculus ddY (mouse) assessed as mortality at 275 mg/kg, ip after 4 days; format: organism-based; parameters: dose 275 mg/kg, route intraperitoneal; conditions: in vivo
[57] = system: Brassica rapa subsp. oleifera; test: Growth inhibition of Brassica rapa subsp. oleifera assessed as total chlorophyll level at 3 x 10^-4 M after 7 days; format: functional; parameters: scale not given: the % may be the effect or the level left
[58] = system: Brassica rapa subsp. oleifera; test: Growth inhibition of Brassica rapa subsp. oleifera assessed as chlorophyll a level at 1 x 10^-4 M after 7 days; format: functional; parameters: scale not given: the % may be the effect or the level left
[59] = Toxicity in Mus musculus ddY (mouse) assessed as mortality at 325 mg/kg, ip after 5 days; format: organism-based; parameters: dose 325 mg/kg, route intraperitoneal; conditions: in vivo

CN1C(=O)CSC1=S [3-METHYL-RHODANINE]
mortality at 168 h [1]: 80%
mortality at 120 h [2]: 80%
Activity [3]: 14.2%
mortality at 72 h [4]: 40%
mortality at 72 h [5]: 80%
Activity [6]: 3.53%
mortality at 48 h [7]: 80%
mortality at 24 h [8]: 0%
Activity [9]: 19.75%
Activity [10]: 4.85%
mortality at 168 h [11]: 40%
mortality at 168 h [12]: 100%
mortality at 48 h [13]: 0%
Activity [14]: 20.44%
mortality at 120 h [15]: 20%
mortality at 48 h [16]: 80%
mortality at 72 h [17]: 80%
Activity [18]: 4.44%
mortality at 96 h [19]: 20%
mortality at 48 h [20]: 20%
mortality at 96 h [21]: 80%
mortality at 72 h [22]: 0%
Activity [23]: 18.62%
mortality at 144 h [24]: 80%
mortality at 168 h [25]: 80%
mortality at 72 h [26]: 100%
Activity [27]: 10.77%
mortality at 144 h [28]: 0%
mortality at 24 h [29]: 60%
mortality at 120 h [30]: 0%
mortality at 144 h [31]: 40%
mortality at 144 h [32]: 20%
mortality at 96 h [33]: 100%
mortality at 24 h [34]: 40%
mortality at 96 h [35]: 40%
Root length [36]: 53.9 mm
mortality at 120 h [37]: 80%
mortality at 168 h [38]: 20%
mortality at 120 h [39]: 40%
Activity [40]: 52.7 mm
Activity [41]: 37.5 mm
mortality at 144 h [42]: 100%
Activity [43]: 4.67%
mortality at 96 h [44]: 0%
LD50 [45]: 255 mg/kg
mortality at 168 h [46]: 0%
mortality at 48 h [47]: 20%
Activity [48]: 15.09%
mortality at 72 h [49]: 20%
mortality at 48 h [50]: 60%
mortality at 24 h [51]: 20%
mortality at 24 h [52]: 20%
mortality at 144 h [53]: 80%
Root length [54]: 56.2 mm
mortality at 24 h [55]: 20%
mortality at 96 h [56]: 80%
Activity [57]: 14.29%
Activity [58]: 15.61%
mortality at 120 h [59]: 100%
